The text below walks through data of patent US20030012732A1, “Feeding assay for identifying nematicidal compounds” (priority 1999, published 2003).

Test [1] deals with C. elegans. Kind of test: Videotaping nematodes under Nomarski interference microscopy (pharyngeal pumping rate). The test is classed as in vivo. The conditions noted are these: at the doses of FIG. 3, separate experiments (not shown).
The subject of test [2] is C. elegans. Briefly: Feeding assay: ingestion of fluorescent microsphere beads (pharyngeal pumping), read by fluorimetry / fluorescence microscopy. The test is classed as in vivo, C. elegans of the Bristol N2 strain. As to the method: 1. C. elegans of the Bristol N2 strain (Brenner, S. 1974. The genetics of Caenorhabditis elegans. Genetics 77: 71-94) were cultured at room temperature on HMS174 E. coli bacteria (Campbell, J. L., Richardson, C., and Studier, F. W. 1978. Genetic recombination and complementation between bacteriophage T7 and cloned fragments of T7 DNA. Proc. Natl. Acad. Sci. USA. 75: 2276-2280) spread on a 150 mm diameter petri dish containing enhanced NGM 3% (w/v) (Avery, L., and Horvitz, H. R. 1990. Effects of starvation and neuroactive drugs on feeding in Caenorhabditis elegans. J. Exp. Zool. 253: 263-270) agar until a good population of adult nematodes was present, but food reserves had not been exhausted. (Nematodes may be mass cultured in suspension if required).
2. The nematodes were collected by washing with 10 mL and then 5 mL of […] and filtering over a 20 μm nylon mesh (Nytal—Catalogue no. BCNY-HD002-20) to retain adult nematodes.
3. Adult nematodes were collected from the mesh using a pasteur pipette and allowed to settle in an eppendorf tube at 1 g for 10 minutes. This packed volume was used to calculate quantities of nematodes for experiments and assays, although nematodes were resuspended in 2-10 volumes of M9 buffer for transfer. Quantitative transfers of nematodes were performed using a Gilson Pipetman P200 or equivalent and a yellow tip with 5 mm cut off the sharp end.
4. 96-well mesh-bottomed plates were blocked prior to performing the assay in order to minimise non-specific adherence of fluorescent microsphere beads. To block, 200 μL of a 0.1% (w/v) suspension of dark blue-dyed, non-fluorescent microsphere beads with a mean diameter of 0.95 μm and a hydrophilic surface coating (Catalogue code DC03B, carboxylate-modified polystyrene/polyvinyl copolymer) (manufactured and supplied by Bangs Laboratories, Inc. 9025 Technology Drive. Fishers, Ind. 46038-2886, USA) were added to the plate and incubated overnight at room temperature with orbital shaking at 70 r.p.m. Prior to the assay, the bead suspension was removed under vacuum using a Millipore Multiscreen manifold. The plate was washed three times by pipetting 200 μL of M9 buffer into each well, allowing the plate to sit for 5 minutes and then sucking off the suspension.
5. The assay was either set up in the wells of a solid-bottomed 24-well plate using a final assay volume in the range of 0.5 to 1.0 mL or it was set up in the wells of a 96-well mesh bottomed plate (Millipore Multiscreen N20 plates, custom order no. SE3R090M6). In the latter case, the final assay volume was always 100 μL. The assay buffer in all cases was M9. The added volume of a stock of M9 and the added volume of double-distilled water were adjusted so as to achieve a final concentration of 1×M9 in the desired assay volume. A sufficient volume of a suspension of nematodes was added to the assay wells to give a final percentage in the range of 2.5% to 15% (v/v) depending on the experiment. A stock solution of the drug or test compound (e.g. serotonin) was added to the wells of the plate to give the desired final concentration. A sufficient volume of a suspension of fluorescent microsphere beads in double-distilled water was added to give a final concentration in the range of 0.025% to 0.1% (w/v) depending on the experiment.
6. The fluorescent beads were 1.30 μm uniformly dyed microsphere beads with a hydrophilic surface-coating. The fluorescence excitation maximum was 420 nm and the emission maximum was 485 nm (catalogue code FC04F, carboxylate-modified polystyrene/polyvinyl copolymer, manufactured and supplied by Bangs Laboratories, Inc. 9025 Technology Drive, Fishers, Ind. 46038-2886, USA).
7. The assay plate was placed on an orbital shaker at 70 r.p.m. at room temperature and incubated for up to 180 minutes (normally 60 minutes), under subdued illumination.
8. At the end of the incubation 20 μL of 100 mM sodium azide was added to the wells of the 96-well mesh plate. […]

Each structure is given as a SMILES string. Some results are limits rather than exact numbers.

Regarding `NCCc1c[nH]c2ccc(O)cc12` [serotonin], in test [1], the “effect on pharyngeal pumping rate” value is reported as “directly affects pharyngeal pumping rate”. For the same compound, in test [2] (5 mM serotonin, 60 minutes, FIG. 3), the “effect of high concentration on signal (bead ingestion)” value is on record as “suboptimal”. In test [2] (10 μL packed volume of adult nematodes (1,600-1,800 nematodes), two hour incubation, gain setting of 30), the signal over control is 6246 arbitrary fluorescence intensity units. In addition, in test [2] (estimated, high magnification examination), the “microsphere beads contained in strongly labelled nematodes” value is recorded as “at least several hundred microsphere beads”. Further, in test [2] (in vivo), the “effect on microsphere bead ingestion when present during the incubation” value is listed as “increased microsphere bead ingestion”. For the same compound, in test [2] (later experiments, optimised conditions), the “average number of microsphere beads ingested by nematodes more than a control nematode” value is ≤ 2,400 microsphere beads. Besides, the “signal strength over control relative to the earlier experiment” value in test [2] (later experiments, optimised conditions, same volume of nematodes) was “approximately 6 times greater”. The “treated nematodes that had ingested one or more microsphere beads” value in test [2] (other experiments under similar conditions to FIG. 1, high magnification examination) was “approximately 80%”. In addition, the “microsphere beads ingested on average per serotonin-treated nematode more than a control nematode” value in test [2] (same experiment, two hour incubation) stood at 417 microsphere beads.
